Key:
[1] = akkermansia muciniphila, 12 h, 2 µM
Description: The drug is tested on Akkermansia muciniphila strain: ATCC BAA-835 for biotransformation. The drug concentrations were measured before and after a 12-h incubation by liquid-chromatography-coupled mass spectrometry (LC–MS)

[2] = (§1) The drug is tested on the gut metagenome community of MV16 with ENA study accession number: PRJEB31790 and ENA sample accession number: SAMEA5537497 for biotransformation. The drug concentrations were measured over 9 timepoints collected between 0 and 24 hours of incubation by liquid-chromatography-coupled mass spectrometry (LC–MS); assay type: ADME; parameters: dose 2 uM, timepoint 0, 1, 2, 4, 6, 8, 12, 18, 24 hours; conditions: 2 µM
[3] = The drug is tested on Coprococcus comes strain: ATCC27758 for biotransformation. The drug concentrations were measured before and after a 12-h incubation by liquid-chromatography-coupled mass spectrometry (LC–MS); assay type: ADME; parameters: dose 2 uM, timepoint 0 vs 12 hours; conditions: 2 µM
[4] = as §1, with “MV08” for “MV16”, “SAMEA5537489” for “SAMEA5537497”; assay type: ADME; parameters: dose 2 uM, timepoint 0, 1, 2, 4, 6, 8, 12, 18, 24 hours; conditions: 2 µM
[5] = as §1, with “MV14” for “MV16”, “SAMEA5537495” for “SAMEA5537497”; assay type: ADME; parameters: dose 2 uM, timepoint 0, 1, 2, 4, 6, 8, 12, 18, 24 hours; conditions: 2 µM
[6] = as §1, with “MV07” for “MV16”, “SAMEA5537488” for “SAMEA5537497”; assay type: ADME; parameters: dose 2 uM, timepoint 0, 1, 2, 4, 6, 8, 12, 18, 24 hours; conditions: 2 µM
[7] = as §1, with “MV09” for “MV16”, “SAMEA5537490” for “SAMEA5537497”; assay type: ADME; parameters: dose 2 uM, timepoint 0, 1, 2, 4, 6, 8, 12, 18, 24 hours; conditions: 2 µM
[8] = as §1, with “MV17” for “MV16”, “SAMEA5537498” for “SAMEA5537497”; assay type: ADME; parameters: dose 2 uM, timepoint 0, 1, 2, 4, 6, 8, 12, 18, 24 hours; conditions: 2 µM
[9] = as §1, with “MV03” for “MV16”, “SAMEA5537484” for “SAMEA5537497”; assay type: ADME; parameters: dose 2 uM, timepoint 0, 1, 2, 4, 6, 8, 12, 18, 24 hours; conditions: 2 µM
[10] = as §1, with “MV04” for “MV16”, “SAMEA5537485” for “SAMEA5537497”; assay type: ADME; parameters: dose 2 uM, timepoint 0, 1, 2, 4, 6, 8, 12, 18, 24 hours; conditions: 2 µM
[11] = as §1, with “MV27” for “MV16”, “SAMEA5537508” for “SAMEA5537497”; assay type: ADME; parameters: dose 2 uM, timepoint 0, 1, 2, 4, 6, 8, 12, 18, 24 hours; conditions: 2 µM
[12] = anaerostipes sp., 12 h, 2 µM
Description: The drug is tested on Anaerostipes sp. strain: fecal isolate for biotransformation. The drug concentrations were measured before and after a 12-h incubation by liquid-chromatography-coupled mass spectrometry (LC–MS)

[13] = as §1, with “MV24” for “MV16”, “SAMEA5537505” for “SAMEA5537497”; assay type: ADME; parameters: dose 2 uM, timepoint 0, 1, 2, 4, 6, 8, 12, 18, 24 hours; conditions: 2 µM
[14] = as §1, with “MV25” for “MV16”, “SAMEA5537506” for “SAMEA5537497”; assay type: ADME; parameters: dose 2 uM, timepoint 0, 1, 2, 4, 6, 8, 12, 18, 24 hours; conditions: 2 µM
[15] = victivallis vadensis, 12 h, 2 µM
Description: The drug is tested on Victivallis vadensis strain: ATCC BAA-548 for biotransformation. The drug concentrations were measured before and after a 12-h incubation by liquid-chromatography-coupled mass spectrometry (LC–MS)

[16] = The drug is tested on Clostridium symbiosum strain: ATCC14940 for biotransformation. The drug concentrations were measured before and after a 12-h incubation by liquid-chromatography-coupled mass spectrometry (LC–MS); conditions: 2 µM

Question: What does the source list for `C[C@@H]1C[C@H]2[C@@H]3CCC4=CC(=O)C=C[C@]4(C)[C@@]3(F)[C@@H](O)C[C@]2(C)[C@@]1(O)C(=O)CO` [DEXAMETHASONE]?
Answer: Bacterial Biotransformation [1]: Compound NOT metabolized; Bacterial Biotransformation [2]: Compound NOT metabolized; Bacterial Biotransformation [3]: Compound NOT metabolized; Bacterial Biotransformation [4]: Compound NOT metabolized; Bacterial Biotransformation [5]: Compound NOT metabolized; Bacterial Biotransformation [6]: Compound NOT metabolized; Bacterial Biotransformation [7]: Compound metabolized; Bacterial Biotransformation [8]: Compound NOT metabolized; Bacterial Biotransformation [9]: Compound metabolized; Bacterial Biotransformation [10]: Compound NOT metabolized; Bacterial Biotransformation [11]: Compound NOT metabolized; Bacterial Biotransformation [12]: Compound NOT metabolized; Bacterial Biotransformation [13]: Compound metabolized; Bacterial Biotransformation [14]: Compound NOT metabolized; Bacterial Biotransformation [15]: Compound NOT metabolized; Bacterial Biotransformation [16]: Compound NOT metabolized
